Results taken from ChEMBL document CHEMBL1201862, “PubChem BioAssay data set” (2004).
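96-well plates; 48 h exposure; 5 concentrations. Endpoints by linear interpolation between flanking doses. Not reached: highest tested concentration assigned. Abbreviation: GI50, concentration required for 50% inhibition of growth.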 The source made the active and inactive calls. Cut-off read from the data, not from the text of the source: active = GI50 up to about 1.1 µM and inactive = higher.

Experiments:
Assay in all cases: DTP human tumour cell line panel, 48 h
SR = test system: SR
SNB-19 = test system: SNB-19
RXF 393 = test system: RXF 393
UACC-62 = test system: UACC-62
ACHN = test system: ACHN
CCRF-CEM = test system: CCRF-CEM
UACC-257 = test system: UACC-257
K562 = test system: K562
NCI/ADR-RES = test system: NCI/ADR-RES
OVCAR-3 = test system: OVCAR-3
PC-3 = test system: PC-3
IGROV-1 = test system: IGROV-1
NCI-H522 = test system: NCI-H522
MDA-MB-231 = test system: MDA-MB-231
BT-549 = test system: BT-549
SK-MEL-5 = test system: SK-MEL-5
HCT-15 = test system: HCT-15
MCF7 = test system: MCF7
HOP-92 = test system: HOP-92
HL-60 = test system: HL-60

| SMILES | GI50 (SR) | GI50 (SNB-19) | GI50 (RXF 393) | GI50 (UACC-62) | GI50 (ACHN) | GI50 (CCRF-CEM) | GI50 (UACC-257) | GI50 (K562) | GI50 (NCI/ADR-RES) | GI50 (OVCAR-3) | GI50 (PC-3) | GI50 (IGROV-1) | GI50 (NCI-H522) | GI50 (MDA-MB-231) | GI50 (BT-549) | GI50 (SK-MEL-5) | GI50 (HCT-15) [µM] | GI50 (MCF7) | GI50 (HOP-92) | GI50 (HL-60) |
| --- | --- | --- | --- | --- | --- | --- | --- | --- | --- | --- | --- | --- | --- | --- | --- | --- | --- | --- | --- | --- |
| O=C(O)CCSC1=NCCN1 | > 100 µM (inactive) | > 100 µM (inactive) | > 100 µM (inactive) | > 100 µM (inactive) | > 100 µM (inactive) | 98.6 µM (inactive) | 64 µM (inactive) | > 100 µM (inactive) | > 100 µM (inactive) | > 100 µM (inactive) | > 100 µM (inactive) | > 100 µM (inactive) | > 100 µM (inactive) | > 100 µM (inactive) | > 100 µM (inactive) | > 100 µM (inactive) | > 100 | > 100 µM (inactive) | > 100 µM (inactive) | > 100 µM (inactive) |
| N#CC1=C(N)N(/N=C/c2ccccc2)C(c2ccccc2)C1(C#N)C#N (stereo not given) | 2.26 µM (inactive) | 23.1 µM (inactive) | 3.39 µM (inactive) | 13.5 µM (inactive) | 4.3 µM (inactive) | 1.9 µM (inactive) | 9.38 µM (inactive) | 2.98 µM (inactive) | 21.6 µM (inactive) | 4.89 µM (inactive) | 16.4 µM (inactive) | 13.7 µM (inactive) | 4.38 µM (inactive) | 17 µM (inactive) | 14.6 µM (inactive) | 14.2 µM (inactive) | 6.75 | 8.17 µM (inactive) | 2.98 µM (inactive) | 2.19 µM (inactive) |
| CCCCC(=C=C(C)CO)C1CCCN1C(=O)OC(C)(C)C (stereo not given) | 15.1 µM (inactive) | 23.3 µM (inactive) | 15.2 µM (inactive) | 13.6 µM (inactive) | 24.8 µM (inactive) | 14.3 µM (inactive) | 16 µM (inactive) | 17.9 µM (inactive) | 16.8 µM (inactive) | 17.5 µM (inactive) | 18.5 µM (inactive) | 17.9 µM (inactive) | 14.5 µM (inactive) | 17 µM (inactive) | 16.1 µM (inactive) | 16.1 µM (inactive) | 17.9 | 20.4 µM (inactive) | 12.7 µM (inactive) | 13.4 µM (inactive) |
| Cn1c(=O)c2c(nc3n(CCCCl)c(=O)ccn23)n(C)c1=O | > 100 µM (inactive) | > 100 µM (inactive) | > 100 µM (inactive) | > 100 µM (inactive) | > 100 µM (inactive) | > 100 µM (inactive) | > 100 µM (inactive) | > 100 µM (inactive) | > 100 µM (inactive) | > 100 µM (inactive) | > 100 µM (inactive) | > 100 µM (inactive) | > 100 µM (inactive) | > 100 µM (inactive) | > 100 µM (inactive) | > 100 µM (inactive) | > 100 | > 100 µM (inactive) | > 100 µM (inactive) | > 100 µM (inactive) |
| O=C1C2CCN(CC2)C1CN1CCOCC1 (stereo not given) | 6.1 µM (inactive) | 18.7 µM (inactive) | 2.25 µM (inactive) | 16.1 µM (inactive) | 2.01 µM (inactive) | 6.98 µM (inactive) | 4.33 µM (inactive) | 6.73 µM (inactive) | 1.96 µM (inactive) | 2.14 µM (inactive) | 20 µM (inactive) | 19.3 µM (inactive) | 0.689 µM (active) | 24.7 µM (inactive) | 2.28 µM (inactive) | 17.1 µM (inactive) | 2.18 | 2.9 µM (inactive) | 1.9 µM (inactive) | 2.74 µM (inactive) |
| O=C1OC(c2ccccc2)=NC1c1ccccc1 (stereo not given) | > 100 µM (inactive) | > 100 µM (inactive) | > 100 µM (inactive) | > 100 µM (inactive) | > 100 µM (inactive) | > 100 µM (inactive) | > 100 µM (inactive) | > 100 µM (inactive) | > 100 µM (inactive) | > 100 µM (inactive) | > 100 µM (inactive) | > 100 µM (inactive) | > 100 µM (inactive) | > 100 µM (inactive) | > 100 µM (inactive) | > 100 µM (inactive) | > 100 | > 100 µM (inactive) | > 100 µM (inactive) | > 100 µM (inactive) |
